From ChEMBL document CHEMBL1914384, “Design, synthesis, and structure-activity relationship studies of highly potent novel benzoxazinyl-oxazolidinone antibacterial agents” (J Med Chem, 2011)
Values after ≈ are worked out from the molar mass of the structure shown.

Experiments:
Type in all cases: functional
[1] = tested on: Enterococcus faecalis; assay: Antibacterial activity against Enterococcus faecalis after 16 hrs by agar dilution method
[2] = tested on: Staphylococcus epidermidis; assay: Antibacterial activity against methicillin-resistant Staphylococcus epidermidis after 16 hrs by agar dilution method
[3] = tested on: Staphylococcus aureus; assay: Antibacterial activity against methicillin-resistant Staphylococcus aureus after 16 hrs by agar dilution method
[4] = tested on: Streptococcus pneumoniae; assay: Antibacterial activity against penicillin-resistant Streptococcus pneumoniae after 16 hrs by agar dilution method
[5] = tested on: Staphylococcus aureus; assay: Antibacterial activity against Staphylococcus aureus ATCC 29213 after 16 hrs by agar dilution method; details: ATCC 29213, 16 h

SMILES: CC(=O)NC[C@@H]1OC(=O)N2c3ccc(-c4ccccc4)cc3OC[C@@H]12
- MIC [1]: 2 µg/mL (≈ 5.91 µM)
- MIC [2]: 1 µg/mL (≈ 2.96 µM)
- MIC [3]: 0.5 µg/mL (≈ 1.48 µM)
- MIC [4]: 0.5 µg/mL (≈ 1.48 µM)
- MIC [5]: 0.5 µg/mL (≈ 1.48 µM)

SMILES: CC(=O)NC[C@@H]1OC(=O)N2c3ccc(N4CCOCC4)cc3OC[C@@H]12
- MIC [1]: 8 µg/mL (≈ 23 µM)
- MIC [2]: 4 µg/mL (≈ 11.5 µM)
- MIC [3]: 4 µg/mL (≈ 11.5 µM)
- MIC [4]: 8 µg/mL (≈ 23 µM)
- MIC [5]: 4 µg/mL (≈ 11.5 µM)

SMILES: CC(=O)NC[C@@H]1OC(=O)N2c3ccc(-c4ccc(-n5ccnc5)nc4)cc3OC[C@@H]12
- MIC [1]: 1 µg/mL (≈ 2.47 µM)
- MIC [2]: 0.5 µg/mL (≈ 1.23 µM)
- MIC [3]: 0.5 µg/mL (≈ 1.23 µM)
- MIC [4]: 0.5 µg/mL (≈ 1.23 µM)
- MIC [5]: 0.5 µg/mL (≈ 1.23 µM)

SMILES: CC(=O)NC[C@@H]1OC(=O)N2c3ccc(-c4ccc(C(C)=O)cc4)cc3OC[C@@H]12
- MIC [1]: 1 µg/mL (≈ 2.63 µM)
- MIC [2]: 0.5 µg/mL (≈ 1.31 µM)
- MIC [3]: 1 µg/mL (≈ 2.63 µM)
- MIC [4]: 2 µg/mL (≈ 5.26 µM)
- MIC [5]: 1 µg/mL (≈ 2.63 µM)

SMILES: CC(=O)NC[C@@H]1OC(=O)N2c3ccc(-c4cccc(N)c4)cc3OC[C@@H]12
- MIC [1]: 1 µg/mL (≈ 2.83 µM)
- MIC [2]: 1 µg/mL (≈ 2.83 µM)
- MIC [3]: 1 µg/mL (≈ 2.83 µM)
- MIC [4]: 0.5 µg/mL (≈ 1.41 µM)
- MIC [5]: 0.5 µg/mL (≈ 1.41 µM)

SMILES: CC(=O)NC[C@@H]1OC(=O)N2c3ccc(-c4ccc(N5CCNCC5)nc4)cc3OC[C@@H]12
- MIC [1]: 0.5 µg/mL (≈ 1.18 µM)
- MIC [2]: 0.5 µg/mL (≈ 1.18 µM)
- MIC [3]: 1 µg/mL (≈ 2.36 µM)
- MIC [4]: 1 µg/mL (≈ 2.36 µM)
- MIC [5]: 0.5 µg/mL (≈ 1.18 µM)

SMILES: CC(=O)NC[C@@H]1OC(=O)N2c3ccc(N4CCN(Cc5ccoc5)CC4)cc3OC[C@@H]12
- MIC [1]: > 16 µg/mL
- MIC [2]: 8 µg/mL (≈ 18.8 µM)
- MIC [3]: > 8 µg/mL
- MIC [4]: > 16 µg/mL
- MIC [5]: 16 µg/mL (≈ 37.5 µM)

SMILES: CC(=O)NC[C@@H]1OC(=O)N2c3cc(F)c(-c4ccncc4)cc3OC[C@@H]12
- MIC [1]: 8 µg/mL (≈ 22.4 µM)
- MIC [2]: 2 µg/mL (≈ 5.6 µM)
- MIC [3]: 4 µg/mL (≈ 11.2 µM)
- MIC [4]: 8 µg/mL (≈ 22.4 µM)
- MIC [5]: 2 µg/mL (≈ 5.6 µM)

SMILES: CC(=O)NC[C@@H]1OC(=O)N2c3ccc(-c4ccc(-c5nnn(C)n5)nc4)cc3OC[C@@H]12
- MIC [1]: 1 µg/mL (≈ 2.37 µM)
- MIC [2]: 0.5 µg/mL (≈ 1.19 µM)
- MIC [3]: 0.5 µg/mL (≈ 1.19 µM)
- MIC [4]: 0.5 µg/mL (≈ 1.19 µM)
- MIC [5]: 0.5 µg/mL (≈ 1.19 µM)

SMILES: CC(=O)NC[C@@H]1OC(=O)N2c3ccc(-c4ccc(-n5cncn5)nc4)cc3OC[C@@H]12
- MIC [1]: 2 µg/mL (≈ 4.92 µM)
- MIC [2]: 1 µg/mL (≈ 2.46 µM)
- MIC [3]: 1 µg/mL (≈ 2.46 µM)
- MIC [4]: 2 µg/mL (≈ 4.92 µM)
- MIC [5]: 0.5 µg/mL (≈ 1.23 µM)

SMILES: CC(=O)NC[C@@H]1OC(=O)N2c3ccc(-c4cncc(N5CCOC5=O)c4)cc3OC[C@@H]12
- MIC [1]: 0.5 µg/mL (≈ 1.18 µM)
- MIC [2]: 0.5 µg/mL (≈ 1.18 µM)
- MIC [3]: 0.5 µg/mL (≈ 1.18 µM)
- MIC [4]: 1 µg/mL (≈ 2.36 µM)
- MIC [5]: 1 µg/mL (≈ 2.36 µM)

SMILES: CC(=O)NC[C@@H]1OC(=O)N2c3ccc(-c4ccc(-c5noc(C)n5)nc4)cc3OC[C@@H]12
- MIC [1]: 1 µg/mL (≈ 2.37 µM)
- MIC [2]: 0.5 µg/mL (≈ 1.19 µM)
- MIC [3]: 0.5 µg/mL (≈ 1.19 µM)
- MIC [4]: 1 µg/mL (≈ 2.37 µM)
- MIC [5]: 0.25 µg/mL (≈ 0.593 µM)

SMILES: CC(=O)NC[C@@H]1OC(=O)N2c3ccc(-c4cccnc4)cc3OC[C@@H]12
- MIC [1]: 1 µg/mL (≈ 2.95 µM)
- MIC [2]: 0.5 µg/mL (≈ 1.47 µM)
- MIC [3]: 0.5 µg/mL (≈ 1.47 µM)
- MIC [4]: 0.5 µg/mL (≈ 1.47 µM)
- MIC [5]: 0.5 µg/mL (≈ 1.47 µM)

SMILES: CC(=O)NC[C@@H]1OC(=O)N2c3ccc(-c4cccs4)cc3OC[C@@H]12
- MIC [1]: 4 µg/mL (≈ 11.6 µM)
- MIC [2]: 1 µg/mL (≈ 2.9 µM)
- MIC [3]: 1 µg/mL (≈ 2.9 µM)
- MIC [4]: 1 µg/mL (≈ 2.9 µM)
- MIC [5]: 1 µg/mL (≈ 2.9 µM)

SMILES: CC(=O)NC[C@@H]1OC(=O)N2c3ccc(-c4cncnc4)cc3OC[C@@H]12
- MIC [1]: 1 µg/mL (≈ 2.94 µM)
- MIC [2]: 0.5 µg/mL (≈ 1.47 µM)
- MIC [3]: 0.5 µg/mL (≈ 1.47 µM)
- MIC [4]: 1 µg/mL (≈ 2.94 µM)
- MIC [5]: 0.25 µg/mL (≈ 0.735 µM)

SMILES: CC(=O)NC[C@@H]1OC(=O)N2c3ccc(-c4ccc(CC#N)nc4)cc3OC[C@@H]12
- MIC [1]: 0.5 µg/mL (≈ 1.32 µM)
- MIC [2]: 0.25 µg/mL (≈ 0.661 µM)
- MIC [3]: 0.25 µg/mL (≈ 0.661 µM)
- MIC [4]: 0.5 µg/mL (≈ 1.32 µM)
- MIC [5]: 0.25 µg/mL (≈ 0.661 µM)

SMILES: COc1ncc(-c2ccc3c(c2)OC[C@H]2[C@H](CNC(C)=O)OC(=O)N32)c(OC)n1
- MIC [1]: 1 µg/mL (≈ 2.5 µM)
- MIC [2]: 1 µg/mL (≈ 2.5 µM)
- MIC [3]: 1 µg/mL (≈ 2.5 µM)
- MIC [4]: 1 µg/mL (≈ 2.5 µM)
- MIC [5]: 1 µg/mL (≈ 2.5 µM)
